# Laboratory results: patent publication US20230159891A1, “T CELL PROGENITOR PRODUCTION METHOD” (Kyoto University, priority 2020, published 2023)
# Legend:
# [1] = test system: Hemogenic endothelial cells (HECs) derived from iPS cells; assay: Importance of SR1 and IL-3 in production of T cell progenitor (Example 3); format: cell-based, human; conditions: 12 days culture
# Method: Hemogenic endothelial cells (HECs) derived from iPS cells prepared in the same manner as in Example 1 were sorted by BD FACSAria® Fusion and re-suspended in a StemSpan SFEM II medium, followed by seeding the cells into a culture vessel (6-well plate) coated with RN and DLL4-Fc (225,000/6 wells). […] Halfway through the culture, on day 4 after the start of culture, 500 μl of the medium described above was added. On day 7 after the start of culture, a half amount of the medium was replaced. On day 12 after the start of culture, cells were collected with pipetting, and the cell number was measured. The cells were stained with the antibodies shown in Table 2 and measured with BD FACSAria™ Fusion.
# [2] = test system: Hemogenic endothelial cells (HECs) induced from iPS cells; assay: Differentiation culture of iPS-derived hemogenic endothelial cells into CD34+/CD7+ T cell progenitors (Example 1); format: cell-based, human
# Method: The cell population containing hemogenic endothelial cells (HECs) for use was a floating cell population obtained by differentiating iPS cells (Ff-I01s04: derived from peripheral blood mononuclear cells of a healthy individual) provided from the Center for iPS Cell Research and Application, Kyoto University, according to known methods (e.g., the methods disclosed in Cell Reports 2 (2012) 1722-1735, or WO2017/221975). Specifically, Ff-I01s04 was seeded at 1×10^6 cells/well in an ultra-low-attachment 6-well plate (Day 0). The cells were cultured under hypoxic conditions (5% 02) for 4 days in EB medium (StemPro-34 supplemented with 10 μg/ml human insulin, 5.5 μg/ml human transferrin, 5 ng/ml sodium selenite, 2 mM L-glutamine, […] α-monothioglycerol, and 50 μg/ml ascorbic acid 2-phosphate) supplemented with 50 ng/ml BMP4, 50 ng/ml bFGF, 50 ng/ml VEGF, and 2 μM SB431542 (Day 4). Subsequently, culture was further performed in a medium supplemented with 50 ng/ml bFGF, 50 ng/ml VEGF, and 50 ng/ml SCF for 4 days (Day 8), thereby obtaining a cell population containing HECs. The floating cell population containing HECs were stained with the following antibody set. […] On day 11 after the start of culture, cells were collected with pipetting, and the cell number was measured. […]
# CD34^+ cells = conditions: NPL 5 (Boitano et al.); cited from earlier work
structure (smiles),measurement,setting,value
"CC(C)n1cnc2c(NCCc3ccc(O)cc3)nc(-c3csc4ccccc34)nc21 [SR1, 4-(2-((2-(benzo[b]thiophen-3-yl)-9-isopropyl-9H-purin-6-yl)amino)ethyl)phenol]",expression level of CD34,"[1]; flow cytometry, control vs -SR1 condition, FIG. 4",plays an important role in maintaining the expression level of CD34
same,cell proliferation (cell number) when the factor is excluded from the additives,"[1]; control: 1 nM SR1, 10 ng/ml IL-3 plus SCF, Flt3L, TPO, IL-7, IL-6, FIG. 3",reduced
same,cell growth,"[2]; 10 days of culture, 1 nM SR1 with SCF, Flt3L, TPO, IL-7, IL-6, IL-3 in StemSpan SFEM II on RetroNectin/DLL4-Fc coated plate",about 150 fold
same,proportion of cells that were proT (CD34+/CD7+) cells,"[2]; same culture as E1, flow cytometry after culture",about 25%
same,expansion of CD34+ cells,CD34^+ cells,promoted expansion
